Experimental data reported in ChEMBL document CHEMBL4257487, “Structure-guided design of a potent peptide inhibitor targeting the interaction between CRK and ABL kinase” (Medchemcomm, 2018).
The source made the active and inactive calls. The calls are words filed in the database; no cut-off is given here. Where a SMILES comes first, the peptide text is derived from it.

Experiments:
[1] = target: T1, Adapter molecule crk (Homo sapiens, UniProt P46108); test: Binding affinity to recombinant human CRK-2 nSH3 domain (1 to 304 residues) expressed in Escherichia coli by NMR analysis
[2] = target: T1, Adapter molecule crk; test: Binding affinity to human c-CRK N-terminal SH3 domain expressed in Escherichia coli BL21 (DE3) by tryptophan fluorescence quenching assay
[3] = target: T1, Adapter molecule crk; test: Binding affinity to recombinant human CRK-2 nSH3 domain (1 to 304 residues) expressed in Escherichia coli assessed as inhibition of interaction with Abl by measuring Abl-mediated CRK-2 phosphorylation at Y221 residue at 1 uM after 10 to 30 mins by PAGE analysis (reference value: 62%); set-up: scale not given: the % may be the effect or the level left
[4] = target: T1, Adapter molecule crk; test: Binding affinity to recombinant human CRK-2 nSH3 domain (1 to 304 residues) expressed in Escherichia coli assessed as inhibition of Abl T315I mutant-mediated CRK-2 phosphorylation at Y221 residue at 1 uM after 10 to 30 mins by PAGE analysis
[5] = target: T1, Adapter molecule crk; test: Binding affinity to recombinant human CRK-2 nSH3 domain (1 to 304 residues) expressed in Escherichia coli by tryptophan fluorescence quenching assay
[6] = target: T1, Adapter molecule crk; test: Binding affinity to recombinant human CRK-2 nSH3 domain (1 to 304 residues) expressed in Escherichia coli at 25 degC by tryptophan fluorescence quenching assay
[7] = target: T1, Adapter molecule crk; test: Ratio of Kd for recombinant human CRK-2 nSH3 domain (1 to 304 residues) expressed in Escherichia coli at 35 degC in presence of 1 M NaCl to Kd for recombinant human CRK-2 nSH3 domain (1 to 304 residues) expressed in Escherichia coli at 35 degC in presence of 80 mM NaCl

T1 sequence (P46108 whole entry, the tested form may be a part): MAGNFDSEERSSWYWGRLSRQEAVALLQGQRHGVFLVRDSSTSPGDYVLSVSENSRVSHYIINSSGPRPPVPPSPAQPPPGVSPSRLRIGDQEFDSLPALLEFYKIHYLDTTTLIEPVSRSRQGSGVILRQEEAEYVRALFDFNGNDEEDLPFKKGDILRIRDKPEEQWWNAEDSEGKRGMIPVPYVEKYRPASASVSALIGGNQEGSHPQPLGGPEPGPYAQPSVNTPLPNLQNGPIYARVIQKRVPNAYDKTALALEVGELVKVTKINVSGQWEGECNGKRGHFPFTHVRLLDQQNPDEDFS

Activity [1]	Kd [2] [µM]	Activity [3] [%]	inhibition [4]	Kd [5] [µM]	Kd [6] [µM]	Ratio [7]	SMILES
Active	1.9						CC(C)C[C@H](NC(=O)[C@H](C)NC(=O)[C@@H]1CCCN1C(=O)[C@@H]1CCCN1C(=O)[C@@H]1CCCN1)C(=O)N1CCC[C@H]1C(=O)N1CCC[C@H]1C(=O)N[C@@H](CCCCN)C(=O)N[C@@H](CCCCN)C(=O)N[C@@H](CCCNC(=N)N)C(=O)O
		33	inactive				Cc1ccc(NC(=O)c2ccc(CN3CCN(C)CC3)cc2)cc1Nc1nccc(-c2cccnc2)n1
Active				0.4			CC(C)C[C@H](NC(=O)[C@H](C)NC(=O)[C@@H]1CCCN1C(=O)[C@@H]1CCCN1C(=O)[C@@H]1CCCN1C(=O)[C@H](CO)NC(=O)[C@H](CC(N)=O)NC(=O)[C@@H](N)CC(=O)O)C(=O)N1CCC[C@H]1C(=O)N[C@@H](CCCCN)C(=O)N[C@@H](CCCCN)C(=O)N[C@@H](CCCNC(=N)N)C(=O)N[C@@H](CCC(N)=O)C(=O)N[C@@H](CO)C(=O)N[C@@H](Cc1ccc(O)cc1)C(=O)O (H-DNSPPPALPKKRQSY-OH)
Active		21	Active	0.009	0.009	50	CC(C)C[C@H](NC(=O)[C@H](C)NC(=O)[C@@H]1CCCN1C(=O)[C@@H]1CCCN1C(=O)[C@@H](N)CO)C(=O)N1CCC[C@H]1C(=O)N[C@@H](CCCCN)C(=O)N[C@@H](CCCCN)C(=O)N[C@@H](CCCNC(=N)N)C(=O)N[C@@H](CCC(N)=O)C(=O)N[C@@H](CO)C(=O)N[C@@H](Cc1ccc(O)cc1)C(=O)N[C@@H](CCCNC(=N)N)C(=O)N[C@@H](CCCNC(=N)N)C(=O)O (H-SPPALPKKRQSYRR-OH)
